The source of these data is a melting point compilation (Tetko et al.).

Usually melting point stands for the temperature, or range, at which the solid turns liquid. In turn, `Clc1cc(Br)ccc1Br` displayed a melting point of 40 °C.
The same measure for `Nc1nc(O)cc(O)n1`: 300 °C; for `CCOC(=O)C(=CN(O)c1ccccc1)c1ccccc1`: 75 °C.
Regarding `CC(C)(C)CCO`, the melting point was -60 °C.
Turning to `CCOC(=O)CN(C)C(=O)c1nn(-c2ccccc2)nc1C`, the melting point lay within 72 to 74 °C.
`O=S(=O)(CCCl)c1ccccc1` yielded a melting point of 54 °C.
On to `C=CCCCCCCCCCCCCCCCCC`, for which the melting point came to 23 °C.
As for `CCOC(=O)C1C(c2ccccc2)C(C(=O)OCC)C(O)(C(F)(F)F)NC1(O)C(F)(F)F` (configuration not stated), the melting point was determined as 234 °C.
Turning to `CCC#CCCCCCCCCCCCCCC`, the melting point is 2 °C.
In the case of `COc1ccc(CCN)cc1OC`, the melting point lay in the range of 12 to 15 °C.
On to `NC(CCc1ccccc1)C(=O)O` (single isomer, unassigned; (-)), for which the melting point was determined as 300 °C.
For the molecule `CCOc1cc(C(=S)N2CCCCC2)ccc1OCc1ccccc1`, the melting point is 72 °C.
Consider `O=C1c2ccccc2S(=O)(=O)N1Cl`, for which the melting point was 148 to 151 °C.
In turn, `C=CCC1(CC(C)O)C(=O)NC(=O)NC1=O` (configuration not stated) registered a melting point of 158 °C.
As to `Cc1cc(Br)cc(N)c1N`, the melting point was in the range of 63 to 64 °C.
In turn, `CCOC(=O)c1cc(C)nc2ccc(Br)cc12` came in with a melting point of 110 to 111 °C.
The same measure for `Cc1cc(C)c2c(=O)n(-c3cccc(C(F)(F)F)c3)c(=O)[nH]c2n1`: 264 to 266 °C; for `O=C(O)C(F)(F)C(F)(F)C(F)(F)C(F)(F)C(F)(F)C(F)(F)C(F)(F)C(F)(F)C(F)(F)C(F)(F)C(F)(F)C(F)(F)C(F)(F)C(F)(F)C(F)(F)F`: 154 to 155 °C.
In turn, `NNc1cc(C(F)(F)F)cc(C(F)(F)F)c1` returned a melting point of 82 °C.
Regarding `O=C(O)C=Cc1ccc(Cl)c([N+](=O)[O-])c1`, the melting point was 187 °C.
Under `CSc1nc(C=O)ccc1C#N` stands 140 °C; under `Nc1c(I)cc([N+](=O)[O-])cc1I`, 251 to 256 °C.
In turn, `O=Cc1ccc(C#Cc2ccccc2)s1` had a melting point of 91 °C.
Take `CC(C)CNC(=O)N1CCNC1=O`: the melting point was determined as 95.5 °C.
As to `COc1ccc(N/N=C(/C#N)c2nc(-c3ccc(C)cc3)cs2)cc1`, the melting point was determined as 145 °C.
On to `Clc1c(Cl)c(Cl)c2c(oc3ccccc32)c1Cl`, for which the melting point was determined as 169 °C.
Take `Cc1ccc(OC(=O)C(C)(c2ccccc2)c2ccccc2)cc1`: the melting point was determined as 111 °C.
`COC1C(O)C(C)OC(OC2CCC3(C)C(CCC4C3CCC3(C)C(C5=CC(=O)OC5)CCC43O)C2)C1O` (configuration not stated) registered a melting point of 221 °C.
On to `O=C1CCC2(c3ccccc3)OCC(c3ccccc3)N12` (configuration not stated), for which the melting point was 78 °C.
For the molecule `Cc1cc(C)n(N=Cc2ccc([N+](=O)[O-])cc2)c(=O)c1C#N`, the melting point was 260 to 261 °C.
The molecule `CC(=O)Nc1ccc(C#N)c(C)c1` came in with a melting point of 163 °C.
Molecule `O=C(O)c1csc(-c2cccc(Cl)c2)n1` had a melting point of 206 to 207 °C.
The same measure for `Cc1ccc(N2CSc3nnc(-c4ccc([N+](=O)[O-])cc4)n3C2)cc1`: 226 °C.
Molecule `NS(=O)(=O)c1ccc(Sc2ccc(Cl)cc2)s1` came in with a melting point of 133 to 136 °C.
In turn, `COC(=O)c1sccc1NN` had a melting point of 69 to 71 °C.
As to `O=C1/C(=N\Nc2cccc(F)c2)C(C(F)(F)F)=NN1c1ccccc1`, the melting point fell in the range of 105 to 107 °C.
Turning to `Cc1ccc(-c2cccc(-c3ccc(C)cc3)n2)cc1`, the melting point was 165 °C.
Take `NC(=O)/C(=N\Nc1ccc(F)cc1)c1nc2ccccc2s1`: the melting point turned out to be 158 °C.
`N#C/C(=C/c1cccc(O)c1)c1nc2ccccc2c(=O)[nH]1` yielded a melting point of 294 °C.
`Nc1nc(-c2ccccc2)ns1`: the melting point is 152 to 156 °C.
For `Cc1cc(Cc2cc(C)cc(C3(C)CCCCC3)c2O)c(O)c(C2(C)CCCCC2)c1`, the melting point amounted to 135 °C.
With `O=C1C(Br)=C(Br)C(=O)C(Br)=C1Br`, the melting point fell in the range of 292 to 294 °C.
Consider `Oc1cc(Cl)c(Cl)c(Cl)c1`, for which the melting point was determined as 101 °C.
In turn, `CC(=O)c1ccc(O)c(O)c1` showed a melting point of 117 to 119 °C.
Regarding `O=C(NC1CCCCC1)C(Br)(C(F)(F)F)C(F)(F)F`, the melting point was 87 °C.
Under `CC=CC(C)C` stands -120 °C; under `N[C@H](CO)[C@H](O)c1ccccc1`, 110 to 114 °C; under `COc1ccc(C=C(C#N)C(N)=O)cc1`, 321 °C.
Under `CCCOC(=O)CCCCC(=O)OCCC` stands -15.7 °C; under `CCOC(=O)c1ccc([N+](=O)[O-])cc1NC(=O)c1ccccc1`, 179 °C; under `c1ccc2sc(SNC3CCCCC3)nc2c1`, 98 °C.
Molecule `N#CCCOCCC#N` had a melting point of -26.3 °C.
`Cn1nc(CC#N)c2c(N)ncnc21`: the melting point was 135 to 138 °C.
With `CCCSc1ncccc1C(=O)O`, the melting point turned out to be 161 °C.
Molecule `O=[N+]([O-])c1ccc(NN=Cc2cccc3c(Br)cccc23)cc1` came in with a melting point of 267 to 268 °C.
Molecule `Clc1ccc(C2C3CCc4ccccc4C3=NN2c2ccccc2)cc1` (configuration not stated) came in with a melting point of 168 to 170 °C.
As to `O=CNC(O)C(Cl)(Cl)Cl` (configuration not stated), the melting point is 120 °C.
Regarding `CCOC(=O)CC(=O)c1ccc([N+](=O)[O-])cc1`, the melting point stood at 72 °C.
The same measure for `COc1ccc(C=Nc2n[nH]c(N=Cc3ccc(OC)c(OC)c3)c2Cc2ccc(Cl)cc2)cc1OC`: 170 to 172 °C; for `COC(=O)C1CC(c2ccccc2)c2ccccc21` (configuration not stated): 91 °C.
The molecule `Nn1c(S)nnc1-c1ccc(Cl)cc1` returned a melting point of 320 °C.
The molecule `CSC(C)(C)C=NO` yielded a melting point of 21 °C.
Consider `CCCN(CCOc1c(Cl)cc(Cl)cc1Cl)C(=O)n1ccnc1`, for which the melting point was 48.3 °C.
On to `Cc1ccc(NC(=O)c2cccc3ccccc23)cc1`, for which the melting point came to 174 °C.
On to `O=C(O)CSCSCC(=O)O`, for which the melting point lay within 125 to 128 °C.
Molecule `CC(C)(C)OC(=O)NC1(C(=O)O)CCCC1` had a melting point of 133 °C.
The same measure for `COC(=O)CCc1ccc(OC)c(O)c1`: 78 °C.
`Oc1ccccc1CNCc1ccccc1O` showed a melting point of 162 °C.
The same measure for `Cc1ccc(C(=O)O)c(C)c1`: 125 °C; for `c1ccc(-c2nc3ccccc3[nH]2)cc1`: 293 to 296 °C.
The same measure for `O=C(OCC(COC(=O)c1cccnc1)(COC(=O)c1cccnc1)COC(=O)c1cccnc1)c1cccnc1`: 162 °C; for `O=C(O)c1cc2ccsc2s1`: 236 °C.
Turning to `Fc1c(Cl)cccc1Cl`, the melting point is 38 °C.
Under `Cc1ccc(Cl)c(Cl)c1Cl` stands 43.5 °C.
In the case of `CC(C)(O)C#CC(C)(C)O`, the melting point was 95 °C.
Take `NCc1ccc(-c2ccsc2)cc1`: the melting point lay within 116 to 117 °C.
Turning to `O=P(N1CC1)(N1CC1)N(N=Cc1ccc(Cl)cc1)c1ccccc1`, the melting point came to 136 °C.
`O=S(=O)(Cl)c1c(Cl)sc(Cl)c1Br` had a melting point of 69 °C.
For the molecule `N#C/C(=N\Nc1cc(Cl)c(Cl)cc1Cl)c1nc(-c2ccc(Cl)cc2)cs1`, the melting point was found to be 176 °C.
For `Cc1cccc(NC(=O)c2ccccc2C(=O)O)c1`, the melting point came out at 150 °C.
`O=C(c1cccs1)c1noc(-c2cccc3ccccc23)c1S(=O)(=O)c1ccccc1` had a melting point of 124 °C.
`Clc1nc(Cl)nc(Oc2cc(Oc3nc(Cl)nc(Cl)n3)cc(Oc3nc(Cl)nc(Cl)n3)c2)n1` showed a melting point of 240 °C.
`FC(Cl)C(F)(F)Cl` (configuration not stated): the melting point was -78 °C.
The same measure for `CCOC(=O)c1sc(SC)c(S(=O)(=O)C(C)C)c1N`: 143 to 146 °C; for `CCOC(=O)Cc1ccc(O)cc1`: 39 to 40 °C; for `CC1CCC(C)(C(=O)CCOC(=S)Nc2ccccc2)C1(C)C` (configuration not stated): 154 °C.
`O=C(O)C=Cc1ccc2c(c1)OCO2` showed a melting point of 242 to 244 °C.
In turn, `Clc1cc2c(cc1Cl)Oc1c(Cl)c(Cl)cc(Cl)c1O2` came in with a melting point of 206 °C.
`O=C1CNCCN1`: the melting point stood at 132 °C.
For `Cc1cc2nsnc2cc1C`, the melting point fell in the range of 89 to 90 °C.
Under `Fc1cc2nsnc2cc1Cl` stands 78 °C.
`CCCCCCCCCCCC1=C(O)C(=O)C=C(O)C1=O` had a melting point of 142 °C.
For the molecule `NCCSc1cc(C(F)(F)F)nc2ccccc12`, the melting point is 97 to 99 °C.
Consider `CCOC(=O)c1nn(-c2ccc(C)cc2)c(C)c1C(=O)C1=NOC2C(=O)N(c3ccccc3C)C(=O)C12` (configuration not stated), for which the melting point was 200 °C.
For the molecule `CC(C)CC=CC(C(=O)O)C1=CCC2(C)C(CCC3C4CCC(O)C4(C)CCC32)C1` (configuration not stated), the melting point turned out to be 200 °C.
As to `N#Cc1ccc(OC2CCOCC2)cc1`, the melting point lay in the range of 109 to 112 °C.
The same measure for `O=C1CCC(c2ccc(NC(=O)c3cccc(C(F)(F)F)c3)cc2)=NN1`: 234 to 235 °C; for `O=C(O)c1c(Cl)cccc1[N+](=O)[O-]`: 164 °C; for `Nc1cnn(-c2ccccc2)c(=O)c1Br`: 224 °C.
`CC(=O)OC(/C=C/c1ccccc1)=NNC(N)=O` showed a melting point of 174 °C.
As for `C[N+](C)(C)CC(O)CC(=O)[O-]` (configuration not stated), the melting point lay in the range of 208 to 212 °C.
On to `c1cc(-c2n[nH]c(-c3ccncc3)n2)ccn1`, for which the melting point was found to be 242 °C.
Molecule `CCC1C2=C(OC(=O)C1(C)C)c1ccc(OC)cc1CC2` (configuration not stated) yielded a melting point of 142 to 143 °C.
For the molecule `NC(=O)NC12CC3CC(CC(C3)C1)C2`, the melting point is 250 °C.
On to `C=C(C)n1c(=O)[nH]c2ccccc21`, for which the melting point lay in the range of 120 to 124 °C.
For `CC1=N[C@]2(c3ccccc3)Oc3c(c4ccccc4c4ccccc34)O[C@@H]2O1`, the melting point turned out to be 166 °C.
In the case of `CN(C)c1ccc2nc3ccc(=O)cc-3sc2c1`, the melting point worked out at 216 °C.
